Results: patent US20060100140A1, “Combination of a) n-{5-[4-(4-methyl-piperazino-methyl)-benzoylamido]2-methylphenyl}-4- (3-pyridyl)-2-pyrimidine-amine and b) a histone deacetylase inhibitor for the treatment of leukemia” (priority 2002, published 2006)

Assays:
K562 cells = assay: Apoptosis by morphological analysis of Wright Giemsa-stained cytospin preparations; assay type: cell-based, human; conditions: K562; for effect of caspase inhibitor on Compound I/SAHA-induced apoptosis: Compound I + SAHA with 25 μM inhibitor
Method: (§1) Experimental Format: Logarithmically growing cells are placed in sterile plastic T-flasks (Corning, Corning, N.Y.) to which are added the designated drugs and the flasks replaced in the incubator for intervals. At the end of the incubation period, cells are transferred to sterile centrifuge tubes, pelleted by centrifugation at 400×g for 10 min at room temperature, and prepared for analysis as described below.
(§2) Assessment of Apoptosis: After drug exposures, cytocentrifuge preparations are stained with Wright-Giemsa and viewed by light microscopy to evaluate the extent of apoptosis (i.e., cell shrinkage, nuclear condensation, formation of apoptotic bodies, etc.) as described previously (Yu et al., Nat. Rev. Cancer 1:294-202). For these studies, the percentage of apoptotic cells is determined by evaluating ≧500 cells/condition in triplicate. To confirm the results of morphological analysis, Annexin V/PI staining is used. Annexin V/PI (BD PharMingen, San Diego, Calif.) analysis of cell death is carried out as per the manufacturer's instructions. In studies involving TNF and TNF soluble receptor, both compound are combined and maintained at room temperature 20 min prior to use. For these experiments 1-2×10^5 cells per condition are harvested. Analysis is carried out using a Becton-Dickinson FACScan cytofluorometer (Mansfield, Mass.). To further confirm the morphology results, TUNEL staining is used. For TUNEL staining, cytocentrifuge preparations are obtained and fixed with 4% formaldehyde. The slides are treated with acetic acid/ethanol (1:2), stained with terminal transferase reaction mixture containing 1× terminal transferase reaction buffer (0.25 units/μl terminal transferase, 2.5 mM CoCl2, and 2 pmol fluorescein-12-dUTM; Boehringer Mannheim, Indianapolis, Ind.), and visualized using fluorescence microscopy.

LAMA 84 cells = assay: Apoptosis by cytospin slides; assay type: cell-based, human; conditions: Table 6; LAMA 84; 24 hr; sodium butyrate (SB; 1 or 2 mM); Compound I concentration not given
Method: as §1, §2

## COC(=O)CC(NC(=O)OC(C)(C)C)C(=O)CF (stereo not shown) [BOC-fmk]
K562 cells
  effect of caspase inhibitor on Compound I/SAHA-induced apoptosis: markedly inhibited apoptosis

## CCCC(=O)[O-].[Na+] [SB, sodium butyrate]
LAMA 84 cells
  Compound I + SB % of apoptotic cells: 6.4 ± 2.8%
K562 cells; Table 6, 24 hr, sodium butyrate (SB; 1 or 2 mM), Compound I concentration not given
  Compound I + SB % of apoptotic cells: 5.1 ± 2.2%

## IETD-fmk
K562 cells
  effect of caspase inhibitor on Compound I/SAHA-induced apoptosis: minimally effective
